pIC50: −log10 of the molar value. Where two headings read alike, the source gives them in different places.
Target: human Arginine Vasopressin Receptor 1a (AVPR1a) (Homo sapiens (Human), UniProt P37288)
Test: Vasopressin V1A receptor antagonist assay (AVP-evoked calcium, FLIPR, CHO-AVPR1a cells)
Type: cell-based
Procedure: The purpose of this assay was to determine the inhibitory effect of synthesized compounds on the Vasopressin V1a receptor. The assay as performed in Chinese Hamster Ovary (CHO) cells expressing the human Arginine Vasopressin Receptor 1a (AVPR1a). Arginine Vasopressin (AVP) evokes an increase in intracellular calcium in CHO-AVPR1a cells which is measured in a fluorescence assay on the FLIPR^TETRA using calcium sensitive dyes. Test compounds were assessed for their ability to affect the magnitude of the response to AVP, with antagonists showing a concentration-dependent reduction in the AVP-mediated fluorescence. Compounds were tested in duplicate in a 10-point, 1:3 dilution series starting at a nominal concentration of 3 μM in the assay.
CHO-AVPR1a cells were maintained in routine culture in T175 Flasks at 37° C., 5% CO2. The growth medium consists of Ham's F12 media supplemented with 10% v/v fetal bovine serum, 1× non-essential amino acids, and 0.4 mg/ml Geneticin G418.
On day one, cells were harvested from T175 flasks when they are 80-90% confluent by first washing the cell monolayer with PBS and then dissociated using trypsin 0.05%/EDTA (3 mL for a T175 Flask). The flasks were incubated at room temperature until the cells detached. To the cell suspension, 10 ml of growth media was added and the cell density determined using the Vi-Cell automated cell counter. The cells were spun at 1000 rpm for 3 minutes, then the supernatant was carefully removed and discarded. The cell pellet was re-suspended at 6.0e^5 cells/ml in growth media. 25 μL of cells in growth media was dispensed into each well (15,000 cells per well) of a poly-D-lysine coated black, clear bottomed, 384-well plate. The plates were incubated at 37° C., 5% CO2 overnight.
At the start of each assay day, the potency of AVP was assessed and an EC80 concentration determined for subsequent compound profiling. Assays were performed using a two-step addition protocol on the FLIPR^TETRA; first addition of 5 μl of control or test compound at 10× final in assay buffer with 15 min incubation at 37° C., 5% CO2 followed by 10 μl of AVP at 6× final concentration in assay buffer. […] The assay buffer consisted of HBSS (+Ca/+Mg) supplemented with 20 mM HEPES, and for the preparation of the AVP agonist only, 0.1% w/v bovine serum albumin. The assay was initiated by the removal of growth media from the cells and replacement with 45 μl of Calcium-6 dye (Molecular Devices) prepared at 1× in assay buffer. Cells are loaded with dye for 60-90 min at 37° C., 5% CO2 before initiation of the FLIPR^TETRA protocol. […] At the end of the incubation period, 10 μl of AVP in assay buffer containing 0.1% BSA was added at the previously determined EC80 concentration.

Sequence of human Arginine Vasopressin Receptor 1a (AVPR1a) (P37288 whole entry): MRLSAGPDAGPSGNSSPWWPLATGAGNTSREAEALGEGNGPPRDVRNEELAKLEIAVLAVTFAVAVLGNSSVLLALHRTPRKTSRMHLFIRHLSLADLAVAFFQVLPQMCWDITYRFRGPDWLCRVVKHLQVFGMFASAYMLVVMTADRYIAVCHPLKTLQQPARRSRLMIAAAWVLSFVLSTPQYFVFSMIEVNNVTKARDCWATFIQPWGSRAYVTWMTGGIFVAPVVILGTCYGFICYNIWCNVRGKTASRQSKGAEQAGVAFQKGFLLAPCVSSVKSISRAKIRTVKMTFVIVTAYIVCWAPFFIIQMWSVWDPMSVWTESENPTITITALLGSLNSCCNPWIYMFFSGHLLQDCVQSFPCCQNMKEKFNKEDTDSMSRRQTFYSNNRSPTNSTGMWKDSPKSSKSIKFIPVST

Row | Structure (SMILES) | pIC50 (read-out: V1a IC50) | pIC50
1 | COC(=O)N1Cc2cc(Cl)ccc2-n2c(C3CC4(C3)CN(c3ncncc3F)C4)nnc2C1C (single isomer, unassigned) [Cpd 188A] | > 7.00 | 
2 | Cc1cncnc1N1CC2(CC(c3nnc4n3-c3ccc(Cl)cc3CN(C)C4)C2)C1 [compound 251] |  | 6.30 to 7.00
3 | CC(C)(C)OC(=O)N1Cc2cc(Cl)ccc2-n2c(nnc2C2CC3(C2)CN(c2ccccn2)C3)C1 [compound 62] | > 7.00 | 
4 | CN1Cc2cc(Cl)ccc2-n2c(nnc2C2CC3(C2)CN(S(C)(=O)=O)C3)C1 [compound 34, 8-chloro-5-methyl-1-(2-(methylsulfonyl)-2-azaspiro[3.3]heptan-6-yl)-5,6-dihydro-4H-benzo[f][1,2,4]triazolo[4,3-a][1,4]diazepine] |  | 6.00 to 6.30
5 | CN1Cc2cc(Cl)ccc2-n2c(nnc2C2CC3(C2)CN(C(=O)C2CCO2)C3)C1 (stereo not drawn) [compound 33] | < 6.00 | 
6 | CN1Cc2cc(Cl)ccc2-c2c(C3CC4(C3)CN(c3ccc(F)cn3)C4)noc2C1 [compound 97, 8-chloro-1-(2-(5-fluoropyridin-2-yl)-2-azaspiro[3.3]heptan-6-yl)-5-methyl-5,6-dihydro-4H-benzo[c]isoxazolo[4,5-e]azepine] | > 7.00 | 
7 | CC1c2nnc(C3CC4(C3)CN(c3ncc(F)cn3)C4)n2-c2ccc(Cl)cc2CN1C(=O)OC(CF)CF (single isomer, unassigned) [Cpd 194B] | < 6.00 | 
8 | Cc1cncc(N2CC3(CC(c4nnc5n4-c4ccc(Cl)cc4CN(C)C5)C3)C2)n1 [compound 237] | > 7.00 | 
9 | Cc1cnc(N2CC3(CC(c4nnc5n4-c4ccc(Cl)cc4CN(C4CC4)C5)C3)C2)nc1 [compound 234] |  | 6.30 to 7.00
10 | Clc1ccc2c(c1)CN(C1CC1)Cc1nnc(C3CC4(C3)CN(c3ccncn3)C4)n1-2 [compound 233] | > 7.00 | 
11 | CC1(N2Cc3cc(Cl)ccc3-n3c(nnc3C3CC4(C3)CN(c3nccc(C#N)n3)C4)C2)CC1 [compound 263] | > 7.00 | 
12 | Cc1ccc(F)c(N2CC3(CC(c4nnc5n4-c4ccc(Cl)cc4CN(C4CC4)C5)C3)C2)n1 [compound 273] | > 7.00 | 
13 | CN1Cc2cc(Cl)ccc2-n2c(nnc2C2CC3(C2)CN(c2ncccn2)C3)C1 [compound 38] | > 7.00 | 
14 | CC(=O)N1Cc2cc(Cl)ccc2-n2c(nnc2C2CC3(C2)CN(c2cccnn2)C3)C1 [compound 66] |  | 6.30 to 7.00
15 | Clc1ccc2c(c1)CN(C1CC1)Cc1nnc(C3CC4(C3)CN(c3cnccn3)C4)n1-2 [compound 219] | > 7.00 | 
16 | Clc1ccc2c(c1)CN(C1CCC1)Cc1nnc(C3CC4(C3)CN(c3cnccn3)C4)n1-2 [compound 40] | > 7.00 | 
17 | O=C(C1C[C@H]1F)N1Cc2cc(Cl)ccc2-n2c(nnc2C2CC3(C2)CN(c2ccc(F)cn2)C3)C1 (stereo partly drawn) [compound 158] | > 7.00 | 
18 | Cc1cnc(N2CC3(CC(c4nnc5n4-c4ccc(Cl)cc4CN(C4(C)CC4)C5)C3)C2)nc1 [compound 253] |  | 6.30 to 7.00
19 | Cc1nccc(N2CC3(CC(c4nnc5n4-c4ccc(Cl)cc4CN(C4CC4)C5)C3)C2)n1 [compound 270] |  | 6.30 to 7.00
20 | Fc1cncnc1N1CC2(CC(c3nnc4n3-c3ccc(Cl)cc3CN(C3CC3)C4)C2)C1 [compound 247] | > 7.00 | 
21 | CN1Cc2cc(Cl)ccc2-n2c(nnc2C2CC3(C2)CN(C(=O)C2CCC2)C3)C1 [compound 35] |  | 6.30 to 7.00
22 | Cc1nc(N2CC3(CC(c4nnc5n4-c4ccc(Cl)cc4CN(C)C5)C3)C2)no1 [compound 266, 3-(6-(8-chloro-5-methyl-5,6-dihydro-4H-benzo[f][1,2,4]triazolo[4,3-a][1,4]diazepin-1-yl)-2-azaspiro[3.3]heptan-2-yl)-5-methyl-1,2,4-oxadiazole] |  | 6.00 to 6.30
23 | CN1Cc2cc(Cl)ccc2-n2c(nnc2C2CC3(C2)CN(C(=O)CC2CC2)C3)C1 [compound 32] | < 6.00 | 
24 | CC1c2nnc(C3CC4(C3)CN(c3ccc(F)cn3)C4)n2-c2ccc(Cl)cc2CN1C (single isomer, unassigned) [Cpd 179B] | 6.30 to 7.00 | 
25 | Cn1nc(N2CC3(CC(c4nnc5n4-c4ccc(Cl)cc4CN(C4CC4)C5)C3)C2)c2cccnc21 [compound 250] | > 7.00 | 
26 | CN1Cc2cc(Cl)ccc2-n2c(nnc2C2CC3(C2)CN(S(=O)(=O)C2CC2)C3)C1 [compound 26] |  | 6.30 to 7.00

Row | Structure (SMILES) | pIC50 (read-out: V1a IC50) | pIC50
27 | Cc1cncc(N2CC3(CC(c4nnc5n4-c4ccc(Cl)cc4CN(C4CC4)C5)C3)C2)n1 [compound 221] | > 7.00 | 
28 | CN1Cc2cc(Cl)ccc2-n2c(nnc2C2CC3(C2)CN(c2ncc(F)cn2)C3)C1 [compound 236, 8-chloro-5-methyl-1-(2-(5-fluoropyrimidin-2-yl)-2-azaspiro[3.3]heptan-6-yl)-5,6-dihydro-4H-benzo[f][1,2,4]triazolo[4,3-a][1,4]diazepine] | > 7.00 | 
29 | CC1c2nnc(C3CC4(C3)CN(c3ccccn3)C4)n2-c2ccc(Cl)cc2CN1C(=O)C1(F)CC1 (stereo not drawn) [compound 181] | > 7.00 | 
30 | COc1ccc(C)nc1N1CC2(CC(c3nnc4n3-c3ccc(Cl)cc3CN(C3CC3)C4)C2)C1 [compound 274] | > 7.00 | 
31 | O=C(C(F)F)N1Cc2cc(Cl)ccc2-n2c(nnc2C2CC3(C2)CN(c2cnccn2)C3)C1 [compound 82] | > 7.00 | 
32 | Fc1ccc(N2CC3(CC(c4nnc5n4-c4ccc(Cl)cc4CNC5)C3)C2)nc1 [compound 60, 8-chloro-1-(2-(5-fluoropyridin-2-yl)-2-azaspiro[3.3]heptan-6-yl)-5,6-dihydro-4H-benzo[f][1,2,4]triazolo[4,3-a][1,4]diazepine] |  | 6.30 to 7.00
33 | CC(C)OC(=O)N1Cc2cc(Cl)ccc2-n2c(C3CC4(C3)CN(c3ccncn3)C4)nnc2C1C (single isomer, unassigned) [Cpd 187A] | > 7.00 | 
34 | CN1Cc2cc(Cl)ccc2-n2c(nnc2C2CC3(C2)CN(c2ccncn2)C3)C1 [compound 243] |  | 6.30 to 7.00
35 | COCCN1Cc2cc(Cl)ccc2-n2c(nnc2C2CC3(C2)CN(c2cnccn2)C3)C1 [compound 43] | > 7.00 | 
36 | CN1Cc2cc(Cl)ccc2-n2c(nnc2C2CC3(C2)CN(c2noc(C4CC4)n2)C3)C1 [compound 267] | < 6.00 | 
37 | CC(C)OC(=O)N1Cc2cc(Cl)ccc2-n2c(C3CC4(C3)CN(c3ccc(F)cn3)C4)nnc2C1C (single isomer, unassigned) [Cpd 163B] | 6.00 to 6.30 | 
38 | CC1c2nnc(C3CC4(C3)CN(c3ncc(F)cn3)C4)n2-c2ccc(Cl)cc2CN1C(=O)OC1CC1 (single isomer, unassigned) [Cpd 192B] | < 6.00 | 
39 | COC(=O)N1Cc2cc(Cl)ccc2-n2c(C3CC4(C3)CN(c3ncncc3F)C4)nnc2C1C (single isomer, unassigned) [Cpd 188B] | < 6.00 | 
40 | Cc1ccc(N2CC3(CC(c4nnc5n4-c4ccc(Cl)cc4CN(C4(C)CC4)C5)C3)C2)nc1 [compound 265] |  | 6.30 to 7.00
41 | Cc1ccnc(N2CC3(CC(c4nnc5n4-c4ccc(Cl)cc4CN(C4CC4)C5)C3)C2)c1 [compound 217, 8-chloro-5-cyclopropyl-1-(2-(4-methylpyridin-2-yl)-2-azaspiro[3.3]heptan-6-yl)-5,6-dihydro-4H-benzo[f][1,2,4]triazolo[4,3-a][1,4]diazepine] | > 7.00 | 
42 | CC(C)OC(=O)N1Cc2cc(Cl)ccc2-n2c(C3CC4(C3)CN(c3ccncn3)C4)nnc2C1C (single isomer, unassigned) [Cpd 187B] | < 6.00 | 
43 | COCCN1Cc2cc(Cl)ccc2-n2c(nnc2C2CC3(C2)CN(c2ncccc2F)C3)C1 [compound 53] | > 7.00 | 
44 | CC(C)N1Cc2cc(Cl)ccc2-n2c(nnc2C2CC3(C2)CN(c2cccnc2)C3)C1 [compound 51] |  | 6.30 to 7.00
45 | Cc1cc(C)nc(N2CC3(CC(c4nnc5n4-c4ccc(Cl)cc4CN(C4CC4)C5)C3)C2)c1 [compound 275] | > 7.00 | 
46 | Cc1nccnc1N1CC2(CC(c3nnc4n3-c3ccc(Cl)cc3CN(C3(C)CC3)C4)C2)C1 [compound 244] | > 7.00 | 
47 | Cc1cc(N2CC3(CC(c4nnc5n4-c4ccc(Cl)cc4CN(C4CC4)C5)C3)C2)ncc1F [compound 235] | > 7.00 | 
48 | Cc1nccnc1N1CC2(CC(c3nnc4n3-c3ccc(Cl)cc3CN(C3CC3)C4)C2)C1 [compound 222] | > 7.00 | 
49 | O=C1OCC2c3nnc(C4CC5(C4)CN(c4ncccn4)C5)n3-c3ccc(Cl)cc3CN12 (stereo not drawn) [compound 198] |  | 6.30 to 7.00
50 | CN1Cc2cc(Cl)ccc2-n2c(nnc2C2CC3(C2)CN(c2nccc4c2ncn4C)C3)C1 [compound 257] |  | 6.00 to 6.30
51 | CC1c2nnc(C3CC4(C3)CN(c3ccccn3)C4)n2-c2ccc(Cl)cc2CN1C(=O)C1(F)CC1 (single isomer, unassigned) [Cpd 181B] | 6.30 to 7.00 | 
